Measurements published in patent publication US20160002273A1, “THIENO[3,2-D]PYRIMIDINE-6-CARBOXAMIDES AND ANALOGUES AS SIRTUIN MODULATORS” (GLAXOSMITHKLINE LLC, priority 2013, published 2016).

Experiments:
SIRT3 = molecular target: T1, SIRT3 (Homo sapiens, UniProt Q9NTG7); test: SIRT3 deacetylation of Trp 5-mer peptide, OAADPr mass spec assay; conditions: Trp SIRT3_IC50, Trp 5-mer peptide; class symbols
T1 sequence (Q9NTG7 102-399): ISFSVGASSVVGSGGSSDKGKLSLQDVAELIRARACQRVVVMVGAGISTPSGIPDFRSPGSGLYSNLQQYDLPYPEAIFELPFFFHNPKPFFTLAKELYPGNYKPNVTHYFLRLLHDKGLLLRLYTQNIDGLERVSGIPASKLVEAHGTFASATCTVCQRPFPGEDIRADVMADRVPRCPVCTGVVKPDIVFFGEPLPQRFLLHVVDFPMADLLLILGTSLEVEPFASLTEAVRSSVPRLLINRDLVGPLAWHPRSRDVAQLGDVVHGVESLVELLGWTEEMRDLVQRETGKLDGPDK
Procedure: (§1) All assays were performed at room temperature in reaction buffer (50 mM HEPES, pH 7.5, 150 mM NaCl, 1 mM DTT, 0.05% BSA). […] To prepare the assays for analysis, 20 μL of reaction volume was mixed in 80 μL of 50:50 acetonitrile:methanol mixture. […] Peak data was integrated using RapidFire Integrator software (Agilent, Santa Clara, Calif.).

SIRT1 = molecular target: T2, SIRT1 (Homo sapiens, UniProt Q96EB6); test: SIRT1 deacetylation of Trp 5-mer peptide, OAADPr mass spec assay; conditions: Trp SIRT1_IC50, Trp 5-mer peptide; class symbols
T2 sequence (Q96EB6 1-747): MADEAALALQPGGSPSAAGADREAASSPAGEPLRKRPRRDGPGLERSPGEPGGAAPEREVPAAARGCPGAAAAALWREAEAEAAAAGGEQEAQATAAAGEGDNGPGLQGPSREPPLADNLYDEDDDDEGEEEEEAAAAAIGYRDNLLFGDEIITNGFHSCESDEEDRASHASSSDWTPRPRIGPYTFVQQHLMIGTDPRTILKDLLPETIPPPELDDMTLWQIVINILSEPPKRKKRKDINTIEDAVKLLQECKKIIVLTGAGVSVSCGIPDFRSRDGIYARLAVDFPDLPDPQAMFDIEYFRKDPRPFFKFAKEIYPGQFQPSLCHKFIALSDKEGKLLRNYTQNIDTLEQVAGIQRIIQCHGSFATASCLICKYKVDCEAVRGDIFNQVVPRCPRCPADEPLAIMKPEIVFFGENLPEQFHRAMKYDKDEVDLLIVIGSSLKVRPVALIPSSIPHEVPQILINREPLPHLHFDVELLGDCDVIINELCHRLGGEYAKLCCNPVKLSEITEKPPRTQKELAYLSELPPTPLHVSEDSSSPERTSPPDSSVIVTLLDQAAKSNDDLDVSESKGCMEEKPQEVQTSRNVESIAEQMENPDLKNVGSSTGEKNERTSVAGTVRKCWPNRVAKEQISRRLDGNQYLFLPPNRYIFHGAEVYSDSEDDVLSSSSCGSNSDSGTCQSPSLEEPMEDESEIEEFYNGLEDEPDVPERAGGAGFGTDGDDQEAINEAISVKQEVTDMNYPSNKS
Procedure: as §1

SIRT2 = molecular target: T3, SIRT2 (Homo sapiens, UniProt Q8IXJ6); test: SIRT2 deacetylation of Trp 5-mer peptide, OAADPr mass spec assay; assay type: biochemical; design: His-SIRT2(1-389); conditions: Trp 5-mer peptide; class symbols; read-out: Trp SIRT2_IC50
T3 sequence (Q8IXJ6 1-389): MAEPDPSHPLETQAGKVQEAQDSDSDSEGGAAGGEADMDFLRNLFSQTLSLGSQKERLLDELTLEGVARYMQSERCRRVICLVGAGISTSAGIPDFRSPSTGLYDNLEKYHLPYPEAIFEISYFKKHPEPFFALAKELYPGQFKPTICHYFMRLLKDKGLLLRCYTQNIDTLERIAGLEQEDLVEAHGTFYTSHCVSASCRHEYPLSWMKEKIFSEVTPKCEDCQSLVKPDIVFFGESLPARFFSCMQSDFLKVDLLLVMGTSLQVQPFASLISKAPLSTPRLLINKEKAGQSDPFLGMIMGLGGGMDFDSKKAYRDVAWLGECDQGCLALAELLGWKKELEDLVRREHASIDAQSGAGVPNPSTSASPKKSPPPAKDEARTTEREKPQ

Row | Compound | IC50 (SIRT3) [nM] | IC50 (SIRT1) [nM] | IC50 (SIRT2) [nM]
1 | NCCNC(=O)c1cccc(C(=O)NCCN2CCN(c3ncnc4cc(C(N)=O)sc34)CC2)c1 [Compound 127, N1-(2-aminoethyl)-N3-(2-(4-(6-carbamoylthieno[3,2-d]pyrimidin-4-yl)piperazin-1-yl)ethyl)isophthalamide] | < 1000 | < 1000 | < 1000
2 | Cc1nc(N2CCN(CCNC(=O)C(C)(C)C)CC2)c2sc(C(N)=O)cc2n1 [Compound 156] | 1000 to 10000 | 1000 to 10000 | < 1000
3 | CC(C)(C)C(=O)N1CCC2(CCN(c3ncnc4cc(C(N)=O)sc34)CC2)C1 [Compound 186] | < 1000 | < 1000 | < 1000
4 | Cc1nc(N2CCC(CCN3CCCC3)CC2)c2sc(C(N)=O)cc2n1 [Compound 146] | < 1000 | 1000 to 10000 | 1000 to 10000
5 | CC(C)(C)OC(=O)NCCC1CCN(c2ncnc3cc(C(=O)O)sc23)CC1 [Compound 189, 4-(4-(2-((tert-butoxycarbonyl)amino)ethyl)piperidin-1-yl)thieno[3,2-d]pyrimidine-6-carboxylic acid] | > 10000 | > 10000 | > 10000
6 | CC(C)(C)OC(=O)NCCC1CCN(c2ccnc3cc(C(N)=O)sc23)CC1 [Compound 103, tert-butyl (2-(1-(2-carbamoylthieno[3,2-b]pyridin-7-yl)piperidin-4-yl)ethyl)carbamate] | < 1000 | < 1000 | < 1000
7 | COCCC1CCN(c2nc(C)nc3cc(C(N)=O)sc23)CC1 [Compound 148] | 1000 to 10000 | 1000 to 10000 | 1000 to 10000
8 | NC(=O)c1cc2ncnc(N3CCC(O)(CN4CCCC4)CC3)c2s1 [Compound 58] | 1000 to 10000 | 1000 to 10000 | 1000 to 10000
9 | CCNC(=O)c1cccc(C(=O)NCCN2CCN(c3ncnc4ccsc34)CC2)c1 [Compound 190] | > 10000 | > 10000 | > 10000
10 | Cc1nc(N2CCC(CN3CCCC3)CC2)c2sc(C(N)=O)cc2n1 [Compound 147] | 1000 to 10000 | > 10000 | 1000 to 10000
11 | NC(=O)c1cc2ncnc(N3CCC(CN4CCCC(C(F)(F)F)C4)CC3)c2s1 (stereo not drawn) [Compound 131, 4-(4-((3-(trifluoromethyl)piperidin-1-yl)methyl)piperidin-1-yl)thieno[3,2-d]pyrimidine-6-carboxamide] | < 1000 | < 1000 | < 1000
12 | NC(=O)c1cc2nccc(N3CCC(CN4CCCC4)CC3)c2s1 [Compound 105] | < 1000 | 1000 to 10000 | < 1000
13 | CCNC(=O)c1cc(Br)cc(C(=O)NCCC2CCN(c3ncnc4cc(C(N)=O)sc34)CC2)c1 [Compound 136, 5-bromo-N^1-(2-(1-(6-carbamoylthieno[3,2-d]pyrimidin-4-yl)piperidin-4-yl)ethyl)-N^3-ethylisophthalamide] | < 1000 | < 1000 | < 1000
14 | NCCN1CCN(c2ncnc3cc(C(N)=O)sc23)CC1 [Compound 16b, 4-(4-(2-aminoethyl)piperazin-1-yl)thieno[3,2-d]pyrimidine-6-carboxamide] | < 1000 | 1000 to 10000 | < 1000
15 | NC(=O)c1cc2ncnc(N3CCC(C(=O)N4CCCC4)CC3)c2s1 [Compound 182] | 1000 to 10000 | > 10000 | 1000 to 10000
16 | Cc1c(C(N)=O)sc2c(N3CCC(CCNC(=O)OC(C)(C)C)CC3)ncnc12 [Compound 116, tert-butyl (2-(1-(6-carbamoyl-7-methylthieno[3,2-d]pyrimidin-4-yl)piperidin-4-yl)ethyl)carbamate] | < 1000 | < 1000 | < 1000
17 | NC(=O)c1cc2ncnc(N3CCN(CCNC(=O)C4CCCC4)CC3)c2s1 [Compound 63] | < 1000 | < 1000 | < 1000
18 | Cc1nc(N2CCC(CCNC(=O)OC(C)(C)C)CC2)c2sc(C(N)=O)cc2n1 [Compound 145, tert-butyl (2-(1-(6-carbamoyl-2-methylthieno[3,2-d]pyrimidin-4-yl)piperidin-4-yl)ethyl)carbamate] | < 1000 | 1000 to 10000 | < 1000
19 | NCCC1CCN(c2ccnc3cc(C(N)=O)sc23)CC1 [Compound 104, 7-(4-(2-aminoethyl)piperidin-1-yl)thieno[3,2-b]pyridine-2-carboxamide] | < 1000 | 1000 to 10000 | < 1000
20 | COCCN1CCN(c2ncnc3cc(C(N)=O)sc23)CC1 [Compound 45] | 1000 to 10000 | 1000 to 10000 | < 1000
21 | Cc1nc(N2CCN(CCNC(=O)OC(C)(C)C)CC2)c2sc(C(N)=O)cc2n1 [Compound 149] | 1000 to 10000 | > 10000 | 1000 to 10000

Second part, the compound after the results:

Row | IC50 (SIRT3) [nM] | IC50 (SIRT1) [nM] | IC50 (SIRT2) [nM] | Compound
22 | > 10000 | 1000 to 10000 | 1000 to 10000 | CC(C)(C)OC(=O)N1CCC(C2CCN(c3ncnc4cc(C(N)=O)oc34)CC2)CC1 [Compound 94, tert-butyl 1′-(6-carbamoylfuro[3,2-d]pyrimidin-4-yl)-[4,4′-bipiperidine]-1-carboxylate]
23 | < 1000 | < 1000 | < 1000 | CC(C)(C)C(=O)NCCN1CCN(c2ncnc3cc(C(N)=O)oc23)CC1 [Compound 97]
24 | < 1000 | 1000 to 10000 | < 1000 | NC(=O)c1cc2ncnc(N3CCC(CCO)CC3)c2o1 [Compound 93]
25 | < 1000 | 1000 to 10000 | 1000 to 10000 | NC(=O)c1cc2ncnc(N3CCC(CN4CCCC4)CC3)c2o1 [Compound 90]
26 | 1000 to 10000 | > 10000 | 1000 to 10000 | Cc1nc(N2CCC(CCN)CC2)c2sc(C(N)=O)cc2n1 [Compound 152, 4-(4-(2-aminoethyl)piperidin-1-yl)-2-methylthieno[3,2-d]pyrimidine-6-carboxamide]
27 | < 1000 | < 1000 | < 1000 | CS(=O)(=O)NCCC1CCN(c2ncnc3cc(C(N)=O)oc23)CC1 [Compound 99]
28 | 1000 to 10000 | > 10000 | 1000 to 10000 | CNCC1CCN(c2ncnc3cc(C(N)=O)sc23)CC1 [Compound 55, 4-(4-((methylamino)methyl)piperidin-1-yl)thieno[3,2-d]pyrimidine-6-carboxamide]
29 | 1000 to 10000 | > 10000 | > 10000 | NC(=O)c1cc2ncnc(N3CCC(C4CCNCC4)CC3)c2o1 [Compound 100, 4-([4,4′-bipiperidin]-1-yl)furo[3,2-d]pyrimidine-6-carboxamide]
30 | < 1000 | 1000 to 10000 | < 1000 | CS(=O)(=O)NCCN1CCN(c2ncnc3cc(C(N)=O)oc23)CC1 [Compound 89]
31 | < 1000 | < 1000 | < 1000 | NC(=O)c1cc2ncnc(N3CCC(CN4CCCC4C(F)(F)F)CC3)c2s1 (stereo not drawn) [Compound 132]
32 | < 1000 | < 1000 | < 1000 | NCCCC1CCN(c2ncnc3cc(C(N)=O)sc23)CC1 [Compound 77, 4-(4-(3-aminopropyl)piperidin-1-yl)thieno[3,2-d]pyrimidine-6-carboxamide 2,2,2-trifluoroacetate]
33 | > 10000 | > 10000 | > 10000 | COCCC1CCN(c2nccc3cc(C(N)=O)sc23)CC1 [Compound 171]
34 | < 1000 | < 1000 | < 1000 | NC(=O)c1cc2ncnc(N3CCC(CCNC(=O)C4CCCC4)CC3)c2s1 [Compound 53]
35 | < 1000 | 1000 to 10000 | < 1000 | NC(=O)c1cc2ncnc(N3CCC(CO)CC3)c2s1 [Compound 51]
